These results are taken from US10005808B2, “Crystal of alkali metal N-acetylneuraminate anhydrate, and process for producing same” (KYOWA HAKKO BIO CO., LTD., priority 2014, dated 2018).

For data set [1] the following is noted: normal temperature / storage; cited from earlier work.
Data set [2] is described as follows: Measurement of degree of solubility in water (HPLC of supernatant). It counts as physicochemical. As to conditions: various temperatures, FIG. 5 / FIG. 10, result in words. On the procedure:
(2) Measurement of Degree of Solubility
A crystal of NeuAc sodium salt anhydrate, a crystal of NeuAc potassium salt anhydrate, or a crystal of known NeuAc dihydrate was added to water adjusted to respective temperatures until each crystal was caused to remain undissolved and after keeping the solution for a sufficient time under stirring, the supernatant containing no crystal was collected and measured for the concentration by using the following HPLC analysis conditions.
Guard column: Shodex SUGAR SH-G ϕ6.0×50 mm
Column: SUGAR SH1011 ϕ8.0×300 mm×2 columns in series
Column temperature: 60° C.
Buffer: an aqueous 0.005 mol/L sulfuric acid solution
Flow velocity: 0.6 mL/min
Detector: UV detector (wavelength: 210 nm)
The degrees of solubility in water of the crystal of NeuAc sodium salt anhydrate obtained above and a crystal of NeuAc dihydrate are illustrated in FIG. 5.
The degrees of solubility in water of the crystal of NeuAc potassium salt anhydrate obtained above and a crystal of NeuAc dihydrate are illustrated in FIG. 10.

Data set [3] in a line: pH of aqueous solution of the crystal at 100 g/L. Format: physicochemical. As for the experimental part:
As for the pH, an aqueous solution at 100 g/L in terms of NeuAc sodium salt was measured.
As for the pH, an aqueous solution at 100 g/L in terms of NeuAc potassium salt was measured.

Data set [4] can be described thus: Weight change (moisture absorption) under an atmosphere of 25° C. and humidity 66%. Format: physicochemical. The settings on record: humidity 66%; for weight increase due to moisture absorption (in words): up to 24 hours. As for the experimental part: With respect to the crystal of NeuAc sodium salt anhydrate and the noncrystalline amorphous of NeuAc sodium salt acquired in Reference Example 1, the weight change under an atmosphere of 25° C. and humidity 66% was compared, and the results are shown in Table 3.
With respect to the crystal of NeuAc potassium salt anhydrate and the noncrystalline amorphous of NeuAc potassium salt acquired in Reference Example 2, the weight change under an atmosphere of 25° C. and humidity 66% was compared, and the results are shown in Table 10.

Data set [5] can be described thus: Degree of coloration when stored in a closed system at 60° C. (transmittance T% 430 nm). It counts as physicochemical. On the procedure: With respect to the crystal of NeuAc sodium salt anhydrate and a crystal of known NeuAc dihydrate, the degree of coloration when stored in a closed system at 60° C. was compared, and the results are shown in Table 7. The degree of coloration is expressed by transmittance T % 430 nm=100×10^−A (A=Abs: 430 nm, 1 cm).
With respect to the crystal of NeuAc potassium salt anhydrate and a crystal of known NeuAc dihydrate, the degree of coloration when stored in a closed system at 60° C. was compared, and the results are shown in Table 14. The degree of coloration is expressed by transmittance T % 430 nm=100×10^−A (A=Abs: 430 nm, 1 cm).

For data set [6] the following is noted: normal temperature; cited from earlier work.

SMILES strings stand for the structures.

Turning to `CC(=O)N[C@H]1[C@H]([C@H](O)[C@H](O)CO)OC(O)(C(=O)[O-])C[C@@H]1O.O.O.O.[Na+]` (some centres unmarked) [NeuAc sodium salt trihydrate], the “storage stability (in words)” value in data set [1] is on record as “high storage stability at normal temperature”.

With `CC(=O)N[C@H]1[C@H]([C@H](O)[C@H](O)CO)OC(O)(C(=O)[O-])C[C@@H]1O.[K+]` (some centres unmarked) [Crystal of potassium salt, NeuAc potassium salt anhydrate], in data set [2], the “degree of solubility in water compared with crystal of known NeuAc dihydrate” value is recorded as “excellent solubility”. Besides, the pH is 6.6 in data set [3] (aqueous solution at 100 g/L in terms of NeuAc potassium salt, listed as Example 4) and 6.5 in data set [3] (aqueous solution at 100 g/L in terms of NeuAc potassium salt, listed as Example 5). Further, the “Rate of Weight Change” value in data set [4] (elapsed time 0 h, Table 10) is given as 0.00%; in data set [4] (elapsed time 3 h, Table 10) it was 0.06%; in data set [4] (elapsed time 7 h, Table 10) it was 0.00%; in data set [4] (elapsed time 24 h, Table 10), −0.06%. Also, in data set [4] (listed as crystal of NeuAc potassium salt anhydrate), the “weight increase due to moisture absorption (in words)” value (“weight increase due” for short) is on record as “a weight increase was not recognized”. Besides, in data set [5], the “coloration during storage compared with crystal of known NeuAc dihydrate (in words)” value is on record as “extremely low”. Besides, the “Transmittance T % 430 nm” value in data set [5] (elapsed time 0 days, Table 14) amounted to 99.90%; in data set [5] (elapsed time 3 days, Table 14), 99.73%; in data set [5] (elapsed time 6 days, Table 14), 99.63%.

As to `CC(=O)N[C@H]1[C@H]([C@H](O)[C@H](O)CO)OC(O)(C(=O)O)C[C@@H]1O` (some centres unmarked) [Crystal of dihydrate, N-Acetylneuraminic acid, reference compound], the “Transmittance T % 430 nm” value in data set [5] (elapsed time 0 days, Table 7) was 100.1%; in data set [5] (elapsed time 0 days, Table 14), 100.1%; in data set [5] (elapsed time 3 days, Table 7) it was 73.26%; in data set [5] (elapsed time 3 days, Table 14), 73.26%; in data set [5] (elapsed time 6 days, Table 7), 50.46%; in data set [5] (elapsed time 6 days, Table 14), 50.46%. The degree of solubility entry in data set [6] is given as “about 100 g/L”. The “storage stability (in words)” value in data set [1] was “gradually discolored to dark brown”.

As to `CC(=O)N[C@H]1[C@H]([C@H](O)[C@H](O)CO)O[C@](O)(C(=O)[O-])C[C@@H]1O.[Na+]` [Reference Example 1, NeuAc sodium salt, reference compound], the “weight increase due” value in data set [4] (listed as noncrystalline amorphous of NeuAc sodium salt, sodium salt) is “marked weight increase due to moisture absorption and deliquesced when 24 hours had passed”.

Take `CC(=O)N[C@H]1[C@H]([C@H](O)[C@H](O)CO)OC(O)(C(=O)[O-])C[C@@H]1O.[K+]` (some centres unmarked) [Reference Example 2, NeuAc potassium salt, reference compound]: in data set [4] (listed as noncrystalline amorphous of NeuAc potassium salt, potassium salt), the “weight increase due” value is “marked weight increase due to moisture absorption and deliquesced when 24 hours had passed”.

With `CC(=O)N[C@H]1[C@H]([C@H](O)[C@H](O)CO)O[C@](O)(C(=O)[O-])C[C@@H]1O.[Na+]` [Crystal of sodium salt, NeuAc sodium salt anhydrate], in data set [2], the “degree of solubility in water compared with crystal of known NeuAc dihydrate” value is listed as “excellent solubility”. For the same compound, the pH stood at 6.74 in data set [3] (aqueous solution at 100 g/L in terms of NeuAc sodium salt, listed as Example 1) and 6.8 in data set [3] (aqueous solution at 100 g/L in terms of NeuAc sodium salt, listed as Example 2). Moreover, the “Rate of Weight Change” value was 0.00% in data set [4] (elapsed time 0 h, Table 3); −0.04% in data set [4] (elapsed time 3 h, Table 3); −0.02% in data set [4] (elapsed time 7 h, Table 3); −0.04% in data set [4] (elapsed time 24 h, Table 3). Also, the “weight increase due” value in data set [4] (listed as crystal of NeuAc sodium salt anhydrate) is given as “a weight increase was not recognized”. For the same compound, in data set [5], the “coloration during storage compared with crystal of known NeuAc dihydrate (in words)” value is listed as “extremely low”. Also, the “Transmittance T % 430 nm” value in data set [5] (elapsed time 0 days, Table 7) was 99.98%; in data set [5] (elapsed time 3 days, Table 7) it was 100.0%; in data set [5] (elapsed time 6 days, Table 7), 100.0%.
